{
  "source": "patent US20140128606A1",
  "about": "“ANTIPRURITIC AGENT” (Toray Industries, Inc., priority 2011, published 2014)",
  "key": {"[1]": {"system": "substance P-induced scratching behavior", "assay": "Inhibitory effect on substance P-induced scratching behavior in mice (MicroAct automatic detection)", "assay_type": "in vivo, mouse", "details": "substance P 250 nmol/site; for Number of scratching behavior (means ± standard error): i.p., counted for 15 minutes", "excerpt": "Substance P-induced scratching behavior in mice which is an intractable pruritus model was induced by the method described in a known document (Togashi et al., European Journal of Pharmacology, 2002, Vol. 435, p. 259 and the like). Further, evaluation of the scratching behavior was objectively carried out by automatic detection using MicroAct (NeuroScience, Inc.) based on the method described in a known document (Hashimoto et al., Allergology International, 2004, Vol. 53, p. 349).\nMore particularly, at least five days before the evaluation of drug effect, neodymium magnets (diameter: 1 mm, length: 3 mm) coated with Parafilm were subcutaneously inserted into the insteps of both hind limbs of 5 to 7 week-old male ICR mouse (Japan SLC, Inc.) under isoflurane anesthesia. One or two days before the day of the evaluation of drug effect, the hair of the rostral part of the back of the mouse was shaved with a hair clipper under isoflurane anesthesia. At least one hour before the start of the measurement of the number of scratching behavior, each mouse (6 to 8 weeks old) was individually placed in a chamber for measurement (diameter: 11 cm, height: 18 cm) for acclimation. After the acclimation, substance P (5 mmol/L) or phosphate-buffered saline (hereinafter referred to as PBS) as a solvent thereof was intradermally administered (0.05 mL/site) into the rostral part of the back, and the measurement of the number of scratching behavior was started immediately after the administration. The number of scratching behavior was recorded by amplifying electric current induced by the movement of the magnets inserted in the hind limbs in a round coil surrounding the chamber for measurement. The measurement was carried out under unattended environment, and the evaluation of the drug effect was carried out by using the number of scratching behavior occurred for 15 minutes after the start of the measurement as an index.\nA test compound or a solvent thereof was administered in an amount of 10 mL/kg 30 to 60 minutes before the start of the measurement of the number of scratching behavior. Varenicline tartrate (Tocris Bioscience) was dissolved in PBS and intraperitoneally administered in a dose of 1, 3 or 10 mg/kg 60 minutes before the start of the measurement of the number of scratching behavior. N-(1-azabicyclo[2.2.2]oct-3(R)-yl)-4-chlorobenzamide hydrochloride (PNU-282987) hydrate (Sigma-Aldrich) was dissolved in PBS and intraperitoneally administered in a dose of 0.3 or 1 mg/kg 45 minutes before the start of the measurement of the number of scratching behavior. The compound of Reference Example 1 was dissolved in PBS and intraperitoneally administered in a dose of 0.1 or 0.3 mg/kg 30 minutes before the start of the measurement of the number of scratching behavior. The compound of Reference Example 2 was dissolved in PBS and intraperitoneally administered in a dose of 1, 3, or 10 mg/kg 45 minutes before the start of the measurement of the number of scratching behavior. The compound of Reference Example 3 was dissolved in distilled water and orally administered in a dose of 1, 3, or 10 mg/kg 30 minutes before the start of the measurement of the number of scratching behavior. The compound of Reference Example 4 was dissolved in PBS and intraperitoneally administered in a dose of 1, 3, or 10 mg/kg 45 minutes before the start of the measurement of the number of scratching behavior. The compound of Reference Example 5 was dissolved in PBS and intraperitoneally administered in a dose of 1, 3, or 10 mg/kg 30 minutes before the start of the measurement of the number of scratching behavior. The compound of Reference Example 6 was dissolved in PBS and intraperitoneally administered in a dose of 1, 3, or 10 mg/kg, 30 minutes before the start of the measurement of the number of scratching behavior. […]"}, "[2]": {"system": "substance P-induced scratching behavior", "assay": "Effect of nicotinic acetylcholine receptor antagonist (mecamylamine hydrochloride) on inhibition of substance P-induced scratching behavior by varenicline", "assay_type": "in vivo, mouse", "details": "varenicline tartrate 3 mg/kg + mecamylamine hydrochloride 3 mg/kg, i.p., 60 minutes before; substance P 250 nmol/site", "experimental": "The induction and measurement of the number of substance P-induced scratching behavior were carried out by the same method as described in Example 1.\nVarenicline tartrate (0.3 mg/mL, Tocris Bioscience), mecamylamine hydrochloride (0.3 mg/mL, Tocris Bioscience), a mixed solution of varenicline tartrate and mecamylamine hydrochloride (both 0.3 mg/mL), or PBS which was a solvent thereof, was intraperitoneally administered in an amount of 10 mL/kg 60 minutes before the start of the measurement of the number of scratching behavior.\nWith regard to statistical processing, Student's t-test was performed when variances were homogeneity by F-test, and Aspin-Welch test was performed when variances were heterogeneity. A level of significance was set to 5% (two-tailed).\nThe vertical axis indicates the number of scratching behavior occurred for 15 minutes (mean±standard error, n=5 to 8). […]"}},
  "note": "Structures can show the parent of a compound that is named as a salt.",
  "data": [
    {"smiles": "c1cnc2cc3c(cc2n1)C1CNCC3C1", "note": "[Varenicline tartrate, 7,8,9,10-tetrahydro-6H-6,10-methanopyrazino[2,3-h][3]benzazepine, reference compound]", "values": [
      {"measurement": "inhibition at 1 mg/kg", "setting": "[1]; Mus musculus, ip, 1 mg/kg, read-out: Inhibition rate", "result": 15, "unit": "%"},
      {"measurement": "inhibition at 3 mg/kg", "setting": "[1]; Mus musculus, ip, 3 mg/kg, read-out: Inhibition rate", "result": 64, "unit": "%"},
      {"measurement": "inhibition at 10 mg/kg", "setting": "[1]; Mus musculus, ip, 10 mg/kg, read-out: Inhibition rate", "result": 101, "unit": "%"},
      {"measurement": "Number of scratching behavior (means ± standard error)", "setting": "[1]; 1 mg/kg", "result": "103 ± 19"},
      {"measurement": "Number of scratching behavior (means ± standard error)", "setting": "[1]; 3 mg/kg", "result": "54 ± 7"},
      {"measurement": "Number of scratching behavior (means ± standard error)", "setting": "[1]; 10 mg/kg", "result": "17 ± 3"},
      {"measurement": "Effect of inhibiting the substance P-induced scratching behavior when used in combination with mecamylamine hydrochloride", "setting": "[2]", "result": "completely disappeared"}
    ]}
  ]
}
